Test results: PubChem BioAssay (NCI)
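These data come from cells grown in 96-well plates and exposed to compound for 48 hours at five concentrations. The concentration for full growth arrest is given as TGI.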

Columns and labels:
Experiment in all cases: inhibition of tumour cell growth, NCI panel, 48 h
CAKI-1 renal = test system: CAKI-1 renal
786-0 renal = test system: 786-0 renal
SK-MEL-2 melanoma = test system: SK-MEL-2 melanoma
MALME-3M melanoma = test system: MALME-3M melanoma
NCI-H522 lung = test system: NCI-H522 lung
NCI-H226 lung = test system: NCI-H226 lung
HCT-116 colon = test system: HCT-116 colon
RXF 393 renal = test system: RXF 393 renal
NCI/ADR-RES ovarian = test system: NCI/ADR-RES ovarian
RPMI-8226 leukemia = test system: RPMI-8226 leukemia
MDA-N = test system: MDA-N

SMILES | TGI (CAKI-1 renal) | TGI (786-0 renal) | TGI (SK-MEL-2 melanoma) | TGI (MALME-3M melanoma) | TGI (NCI-H522 lung) | TGI (NCI-H226 lung) | TGI (HCT-116 colon) | TGI (RXF 393 renal) | TGI (NCI/ADR-RES ovarian) | TGI (RPMI-8226 leukemia) | TGI (MDA-N)
c1ccc2c(c1)Cn1c-2nc2ccccc21 | > 100 µM | > 100 µM | > 100 µM | > 100 µM | > 100 µM | > 100 µM | > 100 µM | > 100 µM | > 100 µM | > 100 µM | > 100 µM
COP(=O)(OC)C1=c2c(C)noc2=C2C=COC2C1=O (configuration not stated) | > 100 µM | > 100 µM | > 100 µM | > 100 µM | > 100 µM | > 100 µM | > 100 µM | > 100 µM | > 100 µM | > 100 µM | > 100 µM
CC(C)c1cc2c(cc1S(=O)(=O)O)[C@@]1(C)CCC[C@@](C)(C(=O)O)C1CC2 (some centres not stated) | > 100 µM | > 100 µM | > 100 µM | > 100 µM | > 100 µM | > 100 µM | > 100 µM | > 100 µM | > 100 µM | > 100 µM | > 100 µM
CCC(=O)NCC1CCCN2CCCCC12 (configuration not stated) | > 100 µM | > 100 µM | > 100 µM | > 100 µM | – | > 100 µM | > 100 µM | > 100 µM | > 100 µM | > 100 µM | > 100 µM
[N-]=[N+]=NC(c1ccccc1)(c1ccccc1)c1ccccc1 | 46.7 µM | 31.5 µM | 29.3 µM | 29.5 µM | 33.5 µM | 33.2 µM | 30.2 µM | 32.9 µM | 34.1 µM | 62.6 µM | 31.4 µM
CC(=O)c1c2c(c3ccccc3c1O)O[C@@H]1OCC[C@H]21 | > 100 µM | > 100 µM | > 100 µM | > 100 µM | > 100 µM | > 100 µM | > 100 µM | > 100 µM | > 100 µM | > 100 µM | > 100 µM
O=C(C1OC1c1ccc(Br)cc1O)C12CC3CC(CC(C3)C1)C2 (configuration not stated) | – | 32.4 µM | – | 42.1 µM | 45.2 µM | > 100 µM | 30.9 µM | 72.4 µM | > 100 µM | 47.5 µM | 32.8 µM
COc1nncc2[nH]c(-c3ccccc3)cc12 | > 100 µM | > 100 µM | > 100 µM | > 100 µM | – | > 100 µM | > 100 µM | > 100 µM | > 100 µM | > 100 µM | > 100 µM
CC1=Nc2ccccc2OC(C)=C1N=Nc1ccc2nc(C)[nH]c2c1 | > 100 µM | > 100 µM | > 100 µM | > 100 µM | > 100 µM | > 100 µM | > 100 µM | > 100 µM | > 100 µM | > 100 µM | > 100 µM
Nc1nccc(-c2c[nH]c3cc(Br)ccc23)n1 | 35 µM | 46.9 µM | 47.2 µM | > 100 µM | 38.4 µM | > 100 µM | 40.2 µM | 49.3 µM | > 100 µM | 49.5 µM | 45.8 µM
Cc1ccccc1OC(C)C(=O)NN1C(=O)CSC1c1ccccc1 (configuration not stated) | > 100 µM | > 100 µM | > 100 µM | > 100 µM | > 100 µM | > 100 µM | > 100 µM | > 100 µM | > 100 µM | > 100 µM | > 100 µM
COc1ccc(N=NC(=Nc2ccccc2)c2ccc(N(CCC#N)CCC#N)cc2)cc1 | > 100 µM | > 100 µM | > 100 µM | – | 69.1 µM | > 100 µM | > 100 µM | > 100 µM | > 100 µM | > 100 µM | > 100 µM
CC(=O)Nn1c(=S)[nH]c2ccccc21 | > 100 µM | > 100 µM | > 100 µM | > 100 µM | > 100 µM | > 100 µM | > 100 µM | > 100 µM | > 100 µM | > 100 µM | > 100 µM
Cc1cccc(Cn2c3c(c4cc(O)ccc42)C(=O)c2ccccc2C3=O)c1 | > 100 µM | 26.6 µM | > 100 µM | > 100 µM | – | > 100 µM | > 100 µM | 21.2 µM | > 67.8 µM | > 30.6 µM | > 100 µM
COc1ccc(C(=C2C=CC=C2)c2ccc(OC)cc2)cc1 | 56.3 µM | – | 68.5 µM | 81.8 µM | 40.4 µM | > 100 µM | 84.8 µM | 61.7 µM | > 100 µM | 28 µM | > 100 µM
NS(=O)(=O)c1nnc(NC(=O)Nc2ccc(Cl)c(Cl)c2)s1 | 78.8 µM | 67.5 µM | 74.2 µM | 39.9 µM | 30.1 µM | 65.8 µM | 42.4 µM | 35.3 µM | 55.7 µM | 51.5 µM | 44.8 µM
CC(C)=CCC[C@@H](C)c1c(O)c(O)c(C)c2nccnc12 | > 90.3 µM | > 100 µM | 58 µM | 66.7 µM | 23.6 µM | 37.1 µM | > 100 µM | > 89.1 µM | 17.7 µM | > 62.7 µM | > 100 µM
Cc1ccc(N(Cc2ccccc2)Cc2ccccc2)cc1 | > 100 µM | > 100 µM | 63.3 µM | 61 µM | 86.8 µM | > 100 µM | > 100 µM | > 100 µM | > 100 µM | 43.6 µM | > 100 µM
Nc1c(-c2ccc(Cl)c(Cl)c2)c2ccc([N+](=O)[O-])cc2c(=O)n1-c1nc2ccccc2s1 | > 39.7 µM | 19.6 µM | 14.4 µM | 9.72 µM | 3.02 µM | 50.3 µM | 12.9 µM | 16.8 µM | 6.8 µM | > 100 µM | > 36 µM
Oc1ccc2c(c1)c1c(n2CCN2CCOCC2)-c2ccccc2CC1 | > 100 µM | > 100 µM | 55.1 µM | 53.2 µM | – | 85.6 µM | > 100 µM | 75.7 µM | 74.2 µM | > 100 µM | > 100 µM
COc1ncc(/C=C2\OC(=O)c3ccccc32)c(OC)n1 | 36.8 µM | > 100 µM | – | > 100 µM | > 100 µM | > 100 µM | > 100 µM | > 100 µM | > 100 µM | > 100 µM | > 100 µM
